In the test the target is T1, LSD1 (Homo sapiens, UniProt O60341).
T1 construct: made in house; host or cells: Escherichia coli Rosetta 2 (pET15b)
Put plainly: HRP-coupled fluorescence LSD1 demethylation activity and inhibition assay, substrate H3_1-21 K4(Me). The class given is biochemical. As to conditions: for mode of inhibition / inhibition of LSD1 (in words): enzyme activity assay; for mode of inhibition: inhibition kinetics; for Km: Tris buffer pH 8.0.

The mark [1] stands for this setting: 100 μM, supplement sheet SMILES and Activity, read-out: Inhibition at 100 μM (%).
The mark [2] stands for this setting: read-out: % inhibition at 100 μM.
The mark [3] stands for this setting: supplement sheet SMILES and Activity, read-out: IC50.

Like-named read-outs stand apart in the source and are kept apart here. Bridge positions count the residues as written; N and C are the ends. Square brackets hold non-standard residues; d marks the D form. Peptide text beside a SMILES is read from it. Cit = NC(=O)NCCC[C@H](N)C(=O)O A value given as a limit tells only on which side of the number the result lay.

As for `CSCC[C@@H]1NC(=O)[C@H](NC(=O)[C@H](CCCNC(=N)N)NC(=O)[C@H](C)N)CCC/C=C\CCC[C@@H](C(=O)N[C@@H](C)C(=O)N[C@@H](CCCNC(=N)N)C(=O)N[C@@H](CCCCN)C(=O)N[C@@H](CO)C(=O)N[C@H](C(N)=O)[C@@H](C)O)NC(=O)[C@H](CCC(N)=O)NC1=O` (relative stereo) [Peptide 24, AR*G^penMQG^penARKST-NH2], the mode of inhibition entry was “competitive inhibitor”. Under setting [1], the inhibition (commonly the change of the read-out against control, counted positive when it falls) at 100 µM came out at 95%. Also, the inhibition at 100 µM under setting [2] stood at 95%.

As for `CSCC[C@@H]1NC(=O)[C@H](NC(=O)[C@H](CCCNC(=N)N)NC(=O)[C@H](C)N)CCC/C=C\CCC[C@H](C(=O)N[C@@H](C)C(=O)N[C@@H](CCCNC(=N)N)C(=O)N[C@@H](CCCCN)C(=O)N[C@@H](CO)C(=O)N[C@H](C(N)=O)[C@@H](C)O)NC(=O)[C@H](CCC(N)=O)NC1=O` (relative stereo) [Peptide 26, AR*G^penMQ*G^penARKST-NH2], the inhibition at 100 µM runs as follows: under setting [1], 100%; under setting [2], 90%.

Turning to `CSCC[C@@H]1NC(=O)[C@H](NC(=O)[C@H](CCCNC(=N)N)NC(=O)[C@H](C)N)CCCCNC(=O)CC[C@@H](C(=O)N[C@@H](C)C(=O)N[C@@H](CCCNC(=N)N)C(=O)N[C@@H](CCCCN)C(=O)N[C@@H](CO)C(=O)N[C@H](C(N)=O)[C@@H](C)O)NC(=O)[C@H](CCC(N)=O)NC1=O` (relative stereo) [Peptide 31], the Ki (usually a measure of affinity in units of concentration, obtained from inhibition or displacement) came out at 2.3 µM and the mode of inhibition entry is given as “competitive inhibitor”. In addition, the inhibition at 100 µM under setting [1] amounted to 100%. For the same compound, under setting [2], the inhibition at 100 µM was determined as 100%. The IC50 – broadly, the midpoint of a concentration-inhibition curve – under setting [3] stood at 5.3 µM.

`CSCC[C@@H]1NC(=O)[C@H](NC(=O)[C@H](CCCNC(=N)N)NC(=O)[C@H](C)N)CCC(=O)NCCCC[C@@H](C(=O)N[C@@H](C)C(=O)N[C@@H](CCCNC(=N)N)C(=O)N[C@@H](CCCCN)C(=O)N[C@@H](CO)C(=O)N[C@H](C(N)=O)[C@@H](C)O)NC(=O)[C@H](CCC(N)=O)NC1=O` (relative stereo) [Peptide 32]: under setting [2], the inhibition at 100 µM was < 20%. Also, where the note is “read-out: Ki”, the Ki was > 100 µM.

Consider `C=CC[C@H](NC(=O)[C@H](CCCNC(=N)N)NC(=O)[C@@H](N)CC=C)C(=O)N[C@@H](CCSC)C(=O)N[C@@H](CCC(N)=O)C(=O)N[C@H](C(=O)N[C@@H](C)C(=O)N[C@@H](CCCNC(=N)N)C(=O)N[C@@H](CCCCN)C(=O)N[C@@H](CO)C(=O)N[C@H](C(N)=O)[C@@H](C)O)[C@@H](C)O` [Peptide 18], for which the concentration for half-maximal inhibition (IC50) was 5 µM. Further, the inhibition at 100 µM under setting [1] was determined as 98%. For the same compound, under setting [2], the inhibition at 100 µM was found to be 98%.

With `CSCC[C@H](NC(=O)[C@@H]1C/C=C\C[C@H](N)C(=O)N[C@@H](CCCNC(=N)N)C(=O)N1)C(=O)N[C@@H](CCC(N)=O)C(=O)N[C@H](C(=O)N[C@@H](C)C(=O)N[C@@H](CCCNC(=N)N)C(=O)N[C@@H](CCCCN)C(=O)N[C@@H](CO)C(=O)N[C@H](C(N)=O)[C@@H](C)O)[C@@H](C)O` [Peptide 19], the inhibition at 100 µM turned out to be 100% under setting [1] and 100% under setting [2].

Take `C=CC[C@H](NC(=O)[C@H](CCC(N)=O)NC(=O)[C@H](CCSC)NC(=O)[C@H](CC=C)NC(=O)[C@H](CCCNC(=N)N)NC(=O)[C@H](C)N)C(=O)N[C@@H](C)C(=O)N[C@@H](CCCNC(=N)N)C(=O)N[C@@H](CCCCN)C(=O)N[C@@H](CO)C(=O)N[C@H](C(N)=O)[C@@H](C)O` [Peptide 20, ARG^alyMQG^alyARKST-NH2]: the inhibition at 100 µM by setting is: under setting [1], 95%; under setting [2], 95%.

Turning to `C=CCCC[C@H](NC(=O)[C@H](CCC(N)=O)NC(=O)[C@H](CCSC)NC(=O)[C@H](CCCC=C)NC(=O)[C@H](CCCNC(=N)N)NC(=O)[C@H](C)N)C(=O)N[C@@H](C)C(=O)N[C@@H](CCCNC(=N)N)C(=O)N[C@@H](CCCCN)C(=O)N[C@@H](CO)C(=O)N[C@H](C(N)=O)[C@@H](C)O` [Peptide 22, ARG^penMQG^penARKST-NH2], the inhibition at 100 µM under setting [1] turned out to be 100% and the inhibition at 100 µM under setting [2] turned out to be 100%.

In the case of `CSCC[C@@H]1NC(=O)[C@@H](NC(=O)[C@H](CCCNC(=N)N)NC(=O)[C@H](C)N)CCC/C=C\CCC[C@@H](C(=O)N[C@@H](C)C(=O)N[C@@H](CCCNC(=N)N)C(=O)N[C@@H](CCCCN)C(=O)N[C@@H](CO)C(=O)N[C@H](C(N)=O)[C@@H](C)O)NC(=O)[C@H](CCC(N)=O)NC1=O` [Peptide 23, ARG^penMQG^penARKST-NH2], the inhibition at 100 µM is, setting by setting: under setting [1], 75%; under setting [2], 75%.

Consider `CSCC[C@@H]1NC(=O)[C@@H](NC(=O)[C@H](CCCNC(=N)N)NC(=O)[C@H](C)N)CCC/C=C\CCC[C@H](C(=O)N[C@@H](C)C(=O)N[C@@H](CCCNC(=N)N)C(=O)N[C@@H](CCCCN)C(=O)N[C@@H](CO)C(=O)N[C@H](C(N)=O)[C@@H](C)O)NC(=O)[C@H](CCC(N)=O)NC1=O` [Peptide 25, ARG^penMQ*G^penARKST-NH2], for which the inhibition at 100 µM was 95% under setting [1] and 95% under setting [2].

As to `CSCC[C@@H]1NC(=O)[C@@H](NC(=O)[C@H](CCCNC(=N)N)NC(=O)[C@H](C)N)CCCCNC(=O)CC[C@@H](C(=O)N[C@@H](C)C(=O)N[C@@H](CCCNC(=N)N)C(=O)N[C@@H](CCCCN)C(=O)N[C@@H](CO)C(=O)N[C@H](C(N)=O)[C@@H](C)O)NC(=O)[C@H](CCC(N)=O)NC1=O` [Peptide 27], the inhibition at 100 µM came out at 65% under setting [1] and 65% under setting [2]. Also, the inhibition constant Ki (read-out: Ki) came to 31 µM. In addition, under setting [3], the IC50 amounted to 62 µM.

Turning to `CSCC[C@@H]1NC(=O)[C@@H](NC(=O)[C@H](CCCNC(=N)N)NC(=O)[C@H](C)N)CCC(=O)NCCCC[C@@H](C(=O)N[C@@H](C)C(=O)N[C@@H](CCCNC(=N)N)C(=O)N[C@@H](CCCCN)C(=O)N[C@@H](CO)C(=O)N[C@H](C(N)=O)[C@@H](C)O)NC(=O)[C@H](CCC(N)=O)NC1=O` [Peptide 28], the affinity corresponds to a Ki of 4 µM and the mode of inhibition result is recorded as “competitive inhibitor”. Further, the inhibition at 100 µM under setting [1] worked out at 98%. For the same compound, under setting [2], the inhibition at 100 µM worked out at 98%. Besides, the IC50 under setting [3] amounted to 12 µM.

Consider `CSCC[C@@H]1NC(=O)[C@@H](NC(=O)[C@H](CCCNC(=N)N)NC(=O)[C@@H]2CCCN2)CCCCNC(=O)CC[C@@H](C(=O)N[C@@H](C)C(=O)N[C@@H](CCCNC(=N)N)C(=O)N[C@@H](CCCCN)C(=O)N[C@@H](CO)C(=O)N[C@H](C(N)=O)[C@@H](C)O)NC(=O)[C@H](CCC(N)=O)NC1=O` [Peptide 29] (H-PRKMQEARKST-NH2; lactam 3-6), for which the inhibition at 100 µM is, setting by setting: under setting [1], 90%; under setting [2], 90%. For the same compound, the inhibitory constant (Ki) (read-out: Ki) was 7 µM. Under setting [3], the IC50 was determined as 14 µM.

For `CSCC[C@@H]1NC(=O)[C@@H](NC(=O)[C@H](CCCNC(=N)N)NC(=O)[C@@H]2CCCN2)CCC(=O)NCCCC[C@@H](C(=O)N[C@@H](C)C(=O)N[C@@H](CCCNC(=N)N)C(=O)N[C@@H](CCCCN)C(=O)N[C@@H](CO)C(=O)N[C@H](C(N)=O)[C@@H](C)O)NC(=O)[C@H](CCC(N)=O)NC1=O` [Peptide 30] (H-PREMQKARKST-NH2; lactam 3-6), the inhibition at 100 µM runs as follows: under setting [1], 75%; under setting [2], 75%. The Ki (read-out: Ki) turned out to be 22 µM. Also, under setting [3], the 50% inhibitory concentration (IC50) was 44 µM.

Turning to `CSCC[C@@H]1NC(=O)[C@@H](NC(=O)[C@H](CCCNC(N)=O)NC(=O)[C@H](C)N)CCC(=O)NCCCC[C@@H](C(=O)N[C@@H](C)C(=O)N[C@@H](CCCNC(=N)N)C(=O)N[C@@H](CCCCN)C(=O)N[C@@H](CO)C(=O)N[C@H](C(N)=O)[C@@H](C)O)NC(=O)[C@H](CCC(N)=O)NC1=O` [Peptide 33] (H-A[Cit]EMQKARKST-NH2; lactam 3-6), the inhibition at 100 µM under setting [1] turned out to be 97% and the inhibition at 100 µM under setting [2] amounted to 97%. In addition, the IC50 under setting [3] turned out to be 13 µM.

Compound `CSCC[C@@H]1NC(=O)[C@@H](NC(=O)[C@H](CCCNC(=N)N)NC(=O)[C@H](C)N)CCC(=O)NCCCC[C@@H](C(=O)N[C@@H](C)C(=O)N[C@@H](CCCNC(N)=O)C(=O)N[C@@H](CCCCN)C(=O)N[C@@H](CO)C(=O)N[C@H](C(N)=O)[C@@H](C)O)NC(=O)[C@H](CCC(N)=O)NC1=O` [Peptide 34] (H-AREMQKA[Cit]KST-NH2; lactam 3-6) returned a Ki of 8 µM. Also, the inhibition at 100 µM under setting [1] was 97%. Besides, the inhibition at 100 µM under setting [2] stood at 97%. Further, under setting [3], the 50% inhibitory concentration (IC50) amounted to 14 µM.

Take `CSCC[C@@H]1NC(=O)[C@@H](NC(=O)[C@H](CCCNC(=N)N)NC(=O)[C@H](C)N)CCCCn2cc(nn2)C[C@@H](C(=O)N[C@@H](C)C(=O)N[C@@H](CCCNC(=N)N)C(=O)N[C@@H](CCCCN)C(=O)N[C@@H](CO)C(=O)N[C@H](C(N)=O)[C@@H](C)O)NC(=O)[C@H](CCC(N)=O)NC1=O` [Peptide 35, ARK^azdMQG^prgARKST-NH2]: the “inhibition of LSD1 (in words)” value is given as “weak competitive inhibitors”. Moreover, the inhibition at 100 µM under setting [2] is < 30%. Moreover, the Ki (read-out: Ki) is > 100 µM.

Turning to `CSCC[C@@H]1NC(=O)[C@@H](NC(=O)[C@H](CCCNC(=N)N)NC(=O)[C@H](C)N)Cc2cn(nn2)CCCC[C@@H](C(=O)N[C@@H](C)C(=O)N[C@@H](CCCNC(=N)N)C(=O)N[C@@H](CCCCN)C(=O)N[C@@H](CO)C(=O)N[C@H](C(N)=O)[C@@H](C)O)NC(=O)[C@H](CCC(N)=O)NC1=O` [Peptide 36, ARG^prgMQK^azdARKST-NH2], the “inhibition of LSD1 (in words)” value was “weak competitive inhibitors”. In addition, the inhibition at 100 µM under setting [1] is 70%. Moreover, the inhibition at 100 µM under setting [2] is 70%. Further, under “read-out: Ki”, the Ki was found to be 30 µM. Besides, under setting [3], the IC50 is 60 µM.

Turning to “H3_1-21 K4(Me): N-terminal 21 amino acids of histone H3, mono-N-methylated at Lys4; LSD1 substrate [reference compound]”, where the note is “substrate of LSD1, 50 mM NaCl”, the kcat was found to be 0.6 s^–1. Besides, the Km (commonly the concentration of substrate that gives half-maximal velocity) amounted to 20 µM (substrate of LSD1, 50 mM NaCl); 80 µM (substrate of LSD1, 150 mM NaCl); 10 µM (substrate of LSD1, without added NaCl).

(Values after article PMC7057333 (ACS Omega, 2020).)
